Experimental data as given in patent US10350188B2, “Use of Neu1 sialidase inhibitors in the treatment of cancer” (priority 2011, dated 2019).
Values joined by “and” are separate entries in the source; they are usually repeats but may differ in a detail not shown here. Identical values can stand only once.

Legend:
MiaPaCa-2 cells = assay: Cell viability of MiaPaCa-2 pancreatic cancer cells in culture (MTT or WST-1, 72 hrs); type: cell-based, human
PANC-1 cells = assay: Cell viability of PANC-1 pancreatic cancer cells in culture (MTT or WST-1, 72 hrs); type: cell-based, human
BxPC-3 cells = assay: Cell viability of BxPC-3 pancreatic cancer cells in culture (MTT or WST-1, 72 hrs); type: cell-based, human; conditions: oseltamivir phosphate alone; BxPC-3 (chemo-resistant); MTT or WST-1, 72 hrs
Capan-1 cells = assay: Cell viability of Capan-1 pancreatic metastatic cancer cells in culture (MTT or WST-1, 72 hrs); type: cell-based, human; conditions: oseltamivir phosphate alone; Capan-1 (chemo-sensitive); MTT or WST-1, 72 hrs
Method: CAPAN-1 cells (ATCC® Number: HTB-79™) are human pancreatic cancer cell line with epithelial morphology expressing the 17 beta-estradiol (E2)-binding estrogen receptor and derived from metastatic liver with adenocarcinoma.
(§1) All cells were grown at 37° C. in 5% CO2 in culture media containing Dulbecco's Modified Eagle Medium (DMEM) (Gibco, Rockville, Md.) supplemented with 10% fetal calf serum (FCS) (HyClone, Logan, Utah, USA).
(§2) MTT is a colorimetric assay for measuring the activity of enzymes that reduce MTT or closely related dyes (XTT, MTS, WSTs) to formazan dye, giving a purple color. A main application allows the assessment of the viability (cell counting) and the proliferation of cells (cell culture assays). It can also be used to determine cytotoxicity of potential medicinal agents and toxic materials, since those agents would stimulate or inhibit cell viability and growth. MTT (3-(4,5-Dimethylthiazol-2-yl)-2,5-diphenyltetrazolium bromide, a yellow tetrazole), is reduced to purple formazan in living cells. A solubilization solution (usually either dimethyl sulfoxide, an acidified ethanol solution, or a solution of the detergent sodium dodecyl sulphate in diluted hydrochloric acid) is added to dissolve the insoluble purple formazan product into a coloured solution. The absorbance of this coloured solution can be quantified by measuring at a certain wavelength (usually between 500 and 600 nm) by a spectrophotometer. The absorption maximum is dependent on the solvent employed.
(§3) WST-1 (Roche Applied Sciences, Montreal) is a ready-to-use substrate which measures the metabolic activity of viable cells. The WST-1 assay is nonradioactive and can be performed entirely in a microplate. It is suitable for measuring cell proliferation, cell viability or cytotoxicity. The assay is based on the reduction of WST-1 by viable cells. The reaction produces a soluble formazan salt. The procedure involves: Culturing the cells in a 96-well microplate, then incubating them with WST-1 for approx. 0.5-4 h. During this incubation period, viable cells convert WST-1 to a water-soluble formazan dye. Quantitating the formazan dye in the microplate is done with an ELISA plate reader. The absorbance directly correlates with the cell number.

MDA MB-231 cells = assay: Cell viability of MDA MB-231 breast cancer cells in culture (MTT or WST-1, 72 hrs); type: cell-based, human; conditions: oseltamivir phosphate alone; MDA MB-231 (chemo-resistant); MTT or WST-1, 72 hrs
Method: (§4) MDA MB-231cells (ATCC® Number: HTB-26™) are human mammary gland breast adenocarcinoma derived from metastatic pleural effusion with epithelial morphology. MCF-7 (ATCC® Number: HTB-22™) are human mammary gland breast adenocarcinoma derived from metastatic pleural effusion with epithelial morphology.
as §1, §2, §3

MCF-7 cells = assay: Cell viability of MCF-7 breast cancer cells in culture (MTT or WST-1, 72 hrs); type: cell-based, human; conditions: oseltamivir phosphate alone; MCF-7 (chemo-sensitive); MTT or WST-1, 72 hrs
Method: as §4, §1, §2, §3

A 2780 cells = assay: Cell viability of A 2780 ovarian cancer cells in culture (MTT or WST-1, 72 hrs); type: cell-based, human; conditions: oseltamivir phosphate alone; A 2780 (chemo-sensitive); MTT or WST-1, 72 hrs
Method: (§5) A-2780 cells are human ovarian cancer cell line which was established from tumor tissue from an untreated patient with adenocarcinoma. Cells grow as a monolayer and in suspension in spinner cultures.
as §1, §2, §3

A 2780cis cells = assay: Cell viability of A 2780cis ovarian cancer cells in culture (MTT or WST-1, 72 hrs); type: cell-based, human; conditions: oseltamivir phosphate alone; A 2780cis (chemo-resistant); MTT or WST-1, 72 hrs
Method: as §5, §1, §2, §3

[1] = tested on: MiaPaCa-2-eGFP pancreatic cancer cells implanted in RAG2/Cγ double mutant Balbc xenograft mice; assay: MiaPaCa-2-eGFP pancreatic cancer xenograft in RAG2/Cγ double mutant Balbc mice; type: in vivo, mouse
Method: Tumour measurements were taken twice a week.
MiaPaCa-2-eGFP pancreatic cancer cells at 1.5×10^6 in 0.2 mL were implanted subcutaneously in the right back flank of these mice. Each mouse in the study was identified by an ear punch number. Twice a week each mouse following implantation of the cancer cells was monitored for tumour volume growth (length and width) at the site of implantation, body weights, and body condition scoring. Scoring the body condition of rodents is a non-invasive method for assessing health and establishing endpoints for adults where body weight is not a viable monitoring tool, such as with tumour models. Body condition scores (BC) range from 1(emaciation) to 5 (obesity). An anticipated BCS of 2—under conditioned—or lower, requires justification in the protocol. Scores are determined by frequent visual and hands-on examination of each animal. The hands-on evaluation is done by gently holding the mouse by the base of the tail and passing a finger over the sacroiliac bones. The findings are matched to the descriptions and diagrams of BC ranges to determine a score. Scores are documented for each animal.

[2] = tested on: PANC-1 human pancreatic cancer cells implanted in RAG1/Cγ double mutant NOD xenograft mice; assay: PANC-1 pancreatic cancer xenograft in RAG1/Cγ double mutant NOD mice; conditions: for Liver metastases % Inhibition: vs untreated day 79
Source text: An immunodeficient mouse model with a double mutation in the combining recombinase activating gene-1 or -2 (RAG1 or RAG2) and common cytokine receptor γ chain (cγ) were used as xenograft mice. […] Mice deficient in both RAG2 and cγ (RAG2−/−/cγ−/−) were generated by inter-crossing and were maintained in SPF isolators in the Animal Care Facility, Queen's University, Kingston, Ontario K7L3N6, Canada. A colony was established in the animal facility. Mice deficient in both RAG1 and cγ (RAG1^−/−×cγ^−/−) on a non-obese diabetic (NOD) genetic background were obtained from the Jackson Laboratory (Bar Harbor, Me.) and a colony was established in the animal facility. All mice were kept under sterile conditions in micro-isolators or air-filtered cages, and were provided with autoclaved food and water. […] They were used between 6 and 8 weeks of age.
Puromycin-resistance eGFP transduced MiaPaCa-2 or PANC-1 cell clones were grown in 75 cm^2 cell culture flask at 80% confluence. The cells were resuspended into solution using TrypLE Express (Gibco) and washed with sterile saline. The cell suspension was centrifuged for 3 min at 900 rpm, and the cell pellet resuspended in sterile saline at a concentration of 5-10×10^6 cells/mL for 1-2×10^6 cells implantation into the right back flank of the mouse. Tumour measurements were taken twice a week. Tumour volumes were determined by (width square/2)×length.
The RAG1/Cγ double mutant xenograft mouse model was implanted with 2×10^6 PANC-1 cells in 0.2 mL in the right back flank.

[3] = oseltamivir phosphate analogues (TD), WST-1, 72 hrs
[4] = day 84, oseltamivir phosphate 2 mg/kg daily, alone or with Abraxane 0.5 / Gemcitabine 30 mg/kg
[5] = day 84, oseltamivir phosphate 5 mg/kg daily, alone or with Abraxane 0.5 / Gemcitabine 30 mg/kg
[6] = day 93, oseltamivir phosphate 2 mg/kg daily, alone or with Gemcitabine 30 mg/kg
[7] = day 93, oseltamivir phosphate 5 mg/kg daily, alone or with Gemcitabine 30 mg/kg
[8] = oseltamivir phosphate 2 mg/kg, alone day 90, with abraxane 0.5 day 78, with gemcitabine 30 day 110

CCOC(=O)C1=C[C@@H](OC(CC)CC)[C@H](NC(C)=O)[C@@H](N)C1 [oseltamivir phosphate]
LD50 (MiaPaCa-2 cells; oseltamivir phosphate alone, MiaPaCa (chemo-resistant), MTT or WST-1, 72 hrs): 850 µM | LD50 MiaPaCa-2 (MiaPaCa-2 cells; [3]): 850 µM | LD50 (PANC-1 cells; oseltamivir phosphate alone, PANC-1 (chemo-resistant), MTT or WST-1, 72 hrs): 1462 µM | LD50 PANC-1 (PANC-1 cells; [3]): 1462 µM | LD50 (BxPC-3 cells): 975 µM | LD50 (Capan-1 cells): 2 µM | LD50 (MDA MB-231 cells): 0.6 µM | LD50 (MCF-7 cells): >3 µM | LD50 (A 2780 cells): 1.5 µM | LD50 (A 2780cis cells): 1.0 µM | % Inhibition (tumour volume) ([1]; Table 8 study, day 46, 50 mg/kg, vs untreated): 60.4% | % Inhibition (tumour volume) ([1]; Table 8 study, day 46, 100 mg/kg, vs untreated): 61.0% | % Inhibition (tumour volume) ([1]; Table 8 study, day 46, 200 mg/kg, vs untreated): 58.5% | Tumour volume ([1]; Table 8 study, day 46 post implantation, oseltamivir phosphate 50 mg/kg): 368 ± 38 (4) mm^3 | Tumour volume ([1]; Table 8 study, day 46 post implantation, oseltamivir phosphate 100 mg/kg): 362 ± 62 (4) mm^3 | Tumour volume ([1]; Table 8 study, day 46 post implantation, oseltamivir phosphate 200 mg/kg): 386 ± 88 (4) mm^3 | % Inhibition (tumour volume) ([1]; day 48, 2 mg/kg i.p., vs untreated): 61.7% | % Inhibition (tumour volume) ([1]; day 48, 10 mg/kg i.p., vs untreated): 71.5% | % Inhibition (tumour volume) ([1]; day 48, 50 mg/kg i.p., vs untreated): 60.3% | % Inhibition (tumour volume) ([1]; day 48, 100 mg/kg i.p., vs untreated): 58.9% | Tumour volume ([1]; day 48 post implantation, oseltamivir phosphate 2 mg/kg i.p.): 370 ± 88 (5) mm^3 | Tumour volume ([1]; day 48 post implantation, oseltamivir phosphate 10 mg/kg i.p.): 275 ± 71 (6) mm^3 | Tumour volume ([1]; day 48 post implantation, oseltamivir phosphate 50 mg/kg i.p.): 383 ± 71 (4) mm^3 | Tumour volume ([1]; day 48 post implantation, oseltamivir phosphate 100 mg/kg i.p.): 397 ± 57 (5) mm^3 | % Inhibition (tumour volume) ([1]; day 61, 2 mg/kg i.p.): 34.1% | % Inhibition (tumour volume) ([1]; day 61, 10 mg/kg i.p.): 26.3% | % Inhibition (tumour volume) ([1]; day 61, 50 mg/kg i.p.): 32.4% | % Inhibition (tumour volume) ([1]; day 61, 100 mg/kg i.p.): 27.4% | Tumour volume ([1]; day 61 post implantation, oseltamivir phosphate 2 mg/kg i.p.): 636 ± 35 (2) mm^3 | Tumour volume ([1]; day 61 post implantation, oseltamivir phosphate 10 mg/kg i.p.): 711 ± 159 (5) mm^3 | Tumour volume ([1]; day 61 post implantation, oseltamivir phosphate 50 mg/kg i.p.): 652 ± 173 (3) mm^3 | Tumour volume ([1]; day 61 post implantation, oseltamivir phosphate 100 mg/kg i.p.): 701 ± 201 (3) mm^3 | Reduction of tumour growth in time-to-progression ([1]; oseltamivir phosphate 2, 10, 50 and 100 mg/kg i.p. from day 40 post implantation, vs untreated): over 50% | % Inhibition To untreated ([2]; day 79, oseltamivir phosphate 2 mg/kg daily, alone or with Abraxane 0.5 / Gemcitabine 30 mg/kg): 35% (n.s.) | Tumour volume ([2]; day 79, oseltamivir phosphate 2 mg/kg i.p. daily, alone or with Abraxane 0.5 / Gemcitabine 30 mg/kg): 901 ± 104 (5) mm^3 | % Inhibition To untreated ([2]; day 79, oseltamivir phosphate 5 mg/kg daily, alone or with Abraxane 0.5 / Gemcitabine 30 mg/kg): 31% (n.s.) | Tumour volume ([2]; day 79, oseltamivir phosphate 5 mg/kg i.p. daily, alone or with Abraxane 0.5 / Gemcitabine 30 mg/kg): 956 ± 345 (4) mm^3 | % Inhibition To untreated [2, 4]: 22% (n.s.) | Tumour volume [2, 4]: 1079 ± 91 (5) mm^3 | % Inhibition To untreated [2, 5]: 5% (n.s.) | Tumour volume [2, 5]: 1321 ± 503 (4) mm^3 | % Inhibition To untreated [2, 6]: 0% (n.s.) | Tumour volume [2, 6]: 1554 ± 469 (2) mm^3 | % Inhibition To untreated [2, 7]: 0% (n.s.) | Tumour volume [2, 7]: 1406 ± 471 (2) mm^3 | Liver metastases (ave number of nodules) ([2]; oseltamivir phosphate 2 mg/kg, alone day 90, with abraxane 0.5 mg/kg day 78, with gemcitabine 30 mg/kg day 110): 26 | Metastases (size, mm) [2, 8]: 0.2-1.3 mm | Liver metastases % Inhibition [2, 8]: 38% | Liver metastases (ave number of nodules) ([2]; oseltamivir phosphate 5 mg/kg, alone day 90, with abraxane 0.5 mg/kg day 90, with gemcitabine 30 mg/kg day 109): 21 | Liver metastases % Inhibition ([2]; oseltamivir phosphate 5 mg/kg, alone day 90, with abraxane 0.5 day 90, with gemcitabine 30 day 109): 50% | Survival of tumour bearing mice ([2]; oseltamivir phosphate 2 and 5 mg/kg, Abraxane 0.5 mg/kg, gemcitabine 30 mg/kg, alone or combined, untreated control day 80): 91 days and 94 days
